Reference: patent US9023616B2, “Oil producing microbes and method of modification thereof” (DSM Nutritional Products AG, priority 2006, dated 2015)

How the values were obtained:
[1] = system: Schizochytrium limacinum SR21; details: dose dependant; cited from earlier work
ONC-T18 [2] = experiment: Fatty acid production antagonist supplementation of ONC-T18 culture, fatty acid profile by FAME GC-FID; assay type: cell-based, Thraustochytrium sp. ONC-T18; details: for adrenic acid, lipid as percentage of total fatty acid / arachidic acid, lipid as percentage of total fatty acid / arachidonic acid, lipid as percentage of total fatty acid / behenic acid, lipid as percentage of total fatty acid / docosadienoic acid, lipid as percentage of total fatty acid / docosahexaenoic acid, lipid as percentage of total fatty acid / docosapentaenoic acid n-3, lipid as percentage of total fatty acid / docosapentaenoic acid n-6, lipid as percentage of total fatty acid / eicosadienoic acid, lipid as percentage of total fatty acid / eicosapentaenoic acid, lipid as percentage of total fatty acid / eicosatetraenoic acid, lipid as percentage of total fatty acid / eicosatrienoic acid, lipid as percentage of total fatty acid / eicosenoic acid, lipid as percentage of total fatty acid / heneicosapentaenoic acid, lipid as percentage of total fatty acid / hexacosanoic acid, lipid as percentage of total fatty acid / homo-gamma-linolenic acid, lipid as percentage of total fatty acid / lignoceric acid, lipid as percentage of total fatty acid / margaric acid, lipid as percentage of total fatty acid / myristic acid, lipid as percentage of total fatty acid / myristoleic acid, lipid as percentage of total fatty acid / nervonic acid, lipid as percentage of total fatty acid / oleic acid, lipid as percentage of total fatty acid / palmitic acid, lipid as percentage of total fatty acid / palmitoleic acid, lipid as percentage of total fatty acid / pentadecanoic acid, lipid as percentage of total fatty acid / pentadecenoic acid, lipid as percentage of total fatty acid / stearic acid, lipid as percentage of total fatty acid / vaccenic acid, lipid as percentage of total fatty acid: presence of the antagonist, oleic acid without glucose
Procedure: Media containing 25 g/l sea salt and 1 g/l yeast extract was autoclaved at 120° C. for 20 minutes. Sterilized glucose was added to the media at a concentration of 9 g/l. Sethoxydim (Supleco) was dissolved in dimethyl sulfoxide at a concentration of 5 mg/ml was then added to the media at to represent a final concentration of 100 µM. 1 ml of a 24 hour pre-culture of ONC-T 18 that had been cultured in the same media was added. Culturing was carried out in a shaker (130 rpm) for four days at room temperature. After the incubation period, cells were harvested by centrifugation at 4300 rpm for 10 minutes. The cell pellets were then freeze-dried, weighed and the oil was extracted from the cells.
(§1) The lipids were extracted and derivatized to fatty acid methyl esters (FAME) for gas chromatography analysis (GC). Transesterification and extraction was done using 200 mg freeze dried cells, with C19:0 as internal standard, added transesterification reaction mix (methanol:hydrochloric acid:chloroform, 10:1:1) mixed and heated at 90° C. for 2 hours, then allowed to cool at room temperature. FAMEs were extracted by adding 1 ml water, and 2 ml hexane:chloroform (4:1), and allow organic and aqueous phases to separate. The organic layer was extracted and treated with 0.5 g of anhydrous sodium sulfate to remove particulates and residual water. The organic solvents were evaporated under a stream of argon. The FAMEs were re-suspended in 5 ml of iso-octane and analyzed by GC-FID. The percent conversion was calculated by dividing the product produced by the sum of (the product produced plus the substrate added) and then multiplying by 100.
Media containing 6 g/l sea salt, 2 g/l yeast extract, and 8 g/l L-glutamic acid monosodium salt hydrate was autoclaved at 120° C. for 20 minutes. Sterilized D+-glucose was then added to this media at a concentration of 40 g/l. Cerulenin dissolved in ethanol at a concentration of 5 mg/ml was added to 250 ml flask and the solvent was evaporated for 1 hour prior to adding the media to the flask. The amount of cerulenin in the flask represented a final concentration of 20 mg/l. ONC-T18 was then added to the medium from a plate culture and culturing occurred in a shaker (130 rpm) at room temperature for four days. After the incubation period, cells were harvested by centrifugation at 4300 rpm for 10 minutes, washed once with distilled water, and then centrifuged again at 4300 rpm for 10 minutes. The cell pellets were then freeze-dried, weighed and the oil was extracted from the cells.
as §1, with “produced+the” for “produced plus the”
Media containing 6 g/l sea salt, 2 g/l yeast extract, and 8 g/l L-glutamic acid monosodium salt hydrate was autoclaved at 120° C. for 20 minutes. Sterilized D+-glucose wad then added at a concentration of 5 g/l or was not added to the media. Oleic acid was added to the media to represent a final concentration of 2 ml/l. […]

ONC-T18 [3] = experiment: Carotenoid content of ONC-T18 exposed to Norflurazon; assay type: cell-based, Thraustochytrium sp. ONC-T18
Procedure: Cells were harvested by centrifugation at 3800×g and washed with phosphate buffered saline. Then resuspended in 10× volume of acetone (Sigma-Aldrich, St Louis, Mo., USA), agitated for 5 minutes at 200 RPM, centrifuged at 3,800×g for 5 mins and concentrated to dryness by N2 evaporation. Followed by resuspension in a minimal amount of 10% acetone in hexane prior to HPLC analysis. Identifications were carried out on an Agilent 1100 HPLC (Agilent, Palo Alto, Calif., USA) equipped with a variable wavelength detector set at 470 nm. Samples were injected through a Symmetry C18 guard column (Waters, Milford, Mass., USA) to a Bondclone C18 reverse-phase column (Phenomenex, Torrance, Calif., USA; […] particles; 3.9×300 mm i.d.). The injection volume was 10 μl and a flow of 1 ml min^−1 10% acetone in hexane over a 25 minute period was used. Carotenoid identity was further confirmed with mass spectrometry analysis (Micromass ESI-QT of MS, Waters, Milford, Mass., USA). Quantitative data for each carotenoid was based on the development of a calibration curve using standards (astaxanthin, zeaxanthin, canthaxanthin, echinenone and β-carotene) and comparing peak area with defined concentrations.

ONC-T18 [4] = experiment: 13C labeled oleic acid incorporation into polyunsaturated fatty acids; assay type: cell-based, Thraustochytrium sp. ONC-T18; details: added to culture medium

Compound	adrenic acid, lipid as percentage of total fatty acid (ONC-T18 [2])	arachidic acid, lipid as percentage of total fatty acid (ONC-T18 [2])	arachidonic acid, lipid as percentage of total fatty acid (ONC-T18 [2])	behenic acid, lipid as percentage of total fatty acid (ONC-T18 [2])	docosadienoic acid, lipid as percentage of total fatty acid (ONC-T18 [2])	docosahexaenoic acid, lipid as percentage of total fatty acid (ONC-T18 [2])	docosapentaenoic acid n-3, lipid as percentage of total fatty acid (ONC-T18 [2])	docosapentaenoic acid n-6, lipid as percentage of total fatty acid (ONC-T18 [2])	eicosadienoic acid, lipid as percentage of total fatty acid (ONC-T18 [2])	eicosapentaenoic acid, lipid as percentage of total fatty acid (ONC-T18 [2])	eicosatetraenoic acid, lipid as percentage of total fatty acid (ONC-T18 [2])	eicosatrienoic acid, lipid as percentage of total fatty acid (ONC-T18 [2])	eicosenoic acid, lipid as percentage of total fatty acid (ONC-T18 [2])	heneicosapentaenoic acid, lipid as percentage of total fatty acid (ONC-T18 [2])	hexacosanoic acid, lipid as percentage of total fatty acid (ONC-T18 [2])	homo-gamma-linolenic acid, lipid as percentage of total fatty acid (ONC-T18 [2])	lignoceric acid, lipid as percentage of total fatty acid (ONC-T18 [2])	margaric acid, lipid as percentage of total fatty acid (ONC-T18 [2])	myristic acid, lipid as percentage of total fatty acid (ONC-T18 [2])	myristoleic acid, lipid as percentage of total fatty acid (ONC-T18 [2])	further results
Cc1ccc(C(=O)O)cc1 [p-toluic acid]	–	–	–	–	–	–	–	–	–	–	–	–	–	–	–	–	–	–	–	–	EPA concentration (in words) [1]: increasing the EPA concentration; omega-6 DPA concentration (in words) [1]: reducing the omega-6 DPA concentration
COc1cc(CNC(=O)CCCC/C=C/C(C)C)ccc1O [capsaicin]	0.46%	0.20%	0.78%	0.00%	0.17%	16.86%	0.31%	5.19%	0.23%	1.38%	0.27%	0.00%	0.00%	0.00%	0.00%	0.22%	0.00%	0.19%	21.86%	0.28%	C16:0 content in ONC-T18, change versus control (in words) (ONC-T18 [2]; antagonist added to medium): decrease in the content of C16:0; C16:1 content in ONC-T18, change versus control (in words) (ONC-T18 [2]; antagonist added to medium): increase the content of C16:1; nervonic acid, lipid as percentage of total fatty acid (ONC-T18 [2]): 0.00%; oleic acid, lipid as percentage of total fatty acid (ONC-T18 [2]): 0.00%; palmitic acid, lipid as percentage of total fatty acid (ONC-T18 [2]): 24.19%; palmitoleic acid, lipid as percentage of total fatty acid (ONC-T18 [2]): 17.98%; pentadecanoic acid, lipid as percentage of total fatty acid (ONC-T18 [2]): 0.91%; pentadecenoic acid, lipid as percentage of total fatty acid (ONC-T18 [2]): 0.23%; stearic acid, lipid as percentage of total fatty acid (ONC-T18 [2]): 1.60%; vaccenic acid, lipid as percentage of total fatty acid (ONC-T18 [2]): 6.67%
CNc1cnn(-c2cccc(C(F)(F)F)c2)c(=O)c1Cl [norflurazon]	0.17%	0.16%	0.19%	0.05%	0.03%	20.61%	0.19%	5.23%	0.13%	0.76%	0.24%	0.00%	0.02%	0.00%	0.00%	0.18%	0.00%	1.03%	11.08%	0.12%	carotenoid content of ONC-T18 (in words) (ONC-T18 [3]): carotenoid content decreased; DHA accumulated in ONC-T18, change versus control (in words) (ONC-T18 [2]; antagonist added to medium): increase in the content and proportion of DHA; DHA accumulated in ONC-T18, change versus control (in words) (ONC-T18 [2]; antagonist added to medium, listed as Norflurazon): DHA increase; proportion of PUFA in ONC-T18 fatty acid profile (in words) (ONC-T18 [2]; increasing amount added): proportion of PUFA increased; nervonic acid, lipid as percentage of total fatty acid (ONC-T18 [2]): 0.00%; oleic acid, lipid as percentage of total fatty acid (ONC-T18 [2]): 0.00%; palmitic acid, lipid as percentage of total fatty acid (ONC-T18 [2]): 40.61%; palmitoleic acid, lipid as percentage of total fatty acid (ONC-T18 [2]): 10.65%; pentadecanoic acid, lipid as percentage of total fatty acid (ONC-T18 [2]): 3.16%; pentadecenoic acid, lipid as percentage of total fatty acid (ONC-T18 [2]): 0.33%; stearic acid, lipid as percentage of total fatty acid (ONC-T18 [2]): 1.52%; vaccenic acid, lipid as percentage of total fatty acid (ONC-T18 [2]): 3.53%
CCC/C(=N\OCC)C1=C(O)CC(CC(C)SCC)CC1=O (stereo not shown) [sethoxydim]	0.00%	0.2%	0.20%	0.00%	0.00%	19.31%	0.24%	5.26%	0.14%	0.78%	0.37%	0.00%	0.00%	1.09%	0.20%	0.10%	0.00%	1.49%	10.97%	0.03%	DHA accumulated in ONC-T18, change versus control (in words) (ONC-T18 [2]; antagonist added to medium): increase in the content and proportion of DHA; nervonic acid, lipid as percentage of total fatty acid (ONC-T18 [2]): 0.00%; oleic acid, lipid as percentage of total fatty acid (ONC-T18 [2]): 0.18%; palmitic acid, lipid as percentage of total fatty acid (ONC-T18 [2]): 40.52%; palmitoleic acid, lipid as percentage of total fatty acid (ONC-T18 [2]): 9.18%; pentadecanoic acid, lipid as percentage of total fatty acid (ONC-T18 [2]): 5.5%; pentadecenoic acid, lipid as percentage of total fatty acid (ONC-T18 [2]): 0.53%; stearic acid, lipid as percentage of total fatty acid (ONC-T18 [2]): 1.45%; vaccenic acid, lipid as percentage of total fatty acid (ONC-T18 [2]): 2.48%
^13C labeled oleic acid	–	–	–	–	–	–	–	–	–	–	–	–	–	–	–	–	–	–	–	–	fate of 13C carbon from enriched oleic acid (in words) (ONC-T18 [4]): found in subsequent polyunsaturated fatty acids
